SMILES strings stand for the structures.

The term IC50 denotes the concentration that inhibits the measured activity by half. Read a low IC50 as higher potency. As usually defined, the IC90 is the point of the concentration-response curve where the effect stands at 90%.

In the first test the test system is Staphylococcus aureus. The experiment in a line: Antimicrobial activity against Staphylococcus aureus ATCC 29213. In kind it is functional, organism-based.
The compound `Cc1ccc(O)c(O)c1` registered an IC50 of 148 µM.

In the next test the test system is Leishmania donovani. The experiment in a line: Antileishmanial activity against promastigote forms of Leishmania donovani by alamar blue assay. In kind it is functional, organism-based. On the technique in general: Alamar Blue is a resazurin reagent that responds to reducing activity.
For the compound `O=Cc1cc(O)ccc1O`, the IC50 came out at 3.3 µM and it took 6.1 µM to reach the 90% level (IC90).

`OCc1cc(O)cc(O)c1Cc1ccc(O)c(O)c1` showed an IC50 of 13 µM and an IC90 of 22 µM.

Regarding `CC1=C[C@H](O)[C@H]2O[C@H]2C1=O`, the midpoint of inhibition, the IC50, lay at 6.9 µM and it took 10.8 µM to reach the 90% level (IC90).

`OCc1cccc(O)c1` gave an IC50 of 34 µM and an IC90 of 52.3 µM.

In the case of `CC1=C[C@@H](O)[C@H](O)CC1=O` (single isomer, unassigned), the concentration for half-maximal inhibition (IC50) is 47.3 µM and the IC90 was 61 µM.

Turning to `C[C@@H]1[C@H](O)[C@@H](C)/C=C/C=C/C=C/C=C/C=C/C=C/C=C/[C@H](O[C@@H]2O[C@H](C)[C@@H](O)[C@H](N)[C@@H]2O)C[C@@H]2O[C@](O)(C[C@@H](O)C[C@@H](O)[C@H](O)CC[C@@H](O)C[C@@H](O)CC(=O)O[C@H]1C)C[C@H](O)[C@H]2C(=O)O` [AMPHOTERICIN B], it took 0.4 µM to reach the 90% level (IC90).

In turn, `OCc1cc(O)ccc1O` [GENTISYL ALCOHOL] yielded an IC50 of 8.5 µM and a 90% effect concentration (IC90) of 10.4 µM.

The compound `Cc1cccc(O)c1` [METACRESOL] gave an IC50 of 9.2 µM and an IC90 of 12.4 µM.

With `N=C(N)c1ccc(OCCCCCOc2ccc(C(=N)N)cc2)cc1` [PENTAMIDINE], half-maximal inhibition (IC50) required 3.2 µM and the 90% effect concentration (IC90) was 5.9 µM.

The subject of another test is Staphylococcus aureus. In words: Antimicrobial activity against methicillin-resistant Staphylococcus aureus ATCC 33591. The test is classed as functional, organism-based.
As to `Cc1ccc(O)c(O)c1`, the IC50 worked out at 72.9 µM.

The record behind these values is ChEMBL document CHEMBL3351471, “Antileishmanial metabolites from Geosmithia langdonii” (J Nat Prod, 2014).
